Values of other authors, collected in patent US20200061085A1, “COMPOSITION FOR TREATMENT, INHIBITION AND ATTENUATION OF MELANOMA VIRUS AND PREVENTION OF SKIN CANCERS” (priority 2018, published 2020).

Details: STS given exogenously, 90 years of cumulative uses (renal, cyanide, eclampsia)

Substance: sodium thiosulfate [STS]
- fatalities: no fatalities
